Patent US10645928B2, “Pesticidally active polycyclic derivatives with sulfur containing substituents” (Syngenta Participations AG, priority 2014, dated 2020)

Columns and labels:
Type in all cases: in vivo
[1] = tested on: Bemisia tabaci (Cotton White Fly); assay: Example B1: Bemisia tabaci, sprayed cotton leaf discs, mortality; conditions: foliar, 144 h, application rate of 200 ppm, adult white flies, 6 days after incubation
Procedure: Cotton leaf discs were placed on agar in 24-well microtiter plates and sprayed with aqueous test solutions prepared from 10,000 ppm DMSO stock solutions. After drying the leaf discs were infested with adult white flies. The samples were checked for mortality 6 days after incubation.

[2] = tested on: Diabrotica balteata (Corn Root Worm); assay: Example B2: Diabrotica balteata, sprayed maize sprouts, mortality and growth inhibition; conditions: 96 h, application rate of 200 ppm, L2 larvae, 4 days after infestation, read-out: effect in at least one of the two categories (mortality or growth inhibition)
Procedure: Maize sprouts placed onto an agar layer in 24-well microtiter plates were treated with aqueous test solutions prepared from 10,000 ppm DMSO stock solutions by spraying. After drying, the plates were infested with L2 larvae (6 to 10 per well). The samples were assessed for mortality and growth inhibition in comparison to untreated samples 4 days after infestation.

[3] = tested on: Euschistus heros (Neotropical Brown Stink Bug); assay: Example B5: Euschistus heros, sprayed soybean leaves, mortality; conditions: 120 h, application rate of 200 ppm, N2 nymphs, 5 days after infestation
Procedure: Soybean leaves on agar in 24-well microtiter plates were sprayed with aqueous test solutions prepared from 10,000 ppm DMSO stock solutions. After drying the leaves were infested with N2 nymphs. The samples were assessed for mortality 5 days after infestation.

[4] = tested on: Frankliniella occidentalis (Western Flower Thrips); assay: Example B7: Frankliniella occidentalis, sprayed sunflower leaf discs, mortality; conditions: foliar, 168 h, application rate of 200 ppm, population of mixed ages, 7 days after infestation
Procedure: Sunflower leaf discs were placed on agar in 24-well microtiter plates and sprayed with aqueous test solutions prepared from 10,000 DMSO stock solutions. After drying the leaf discs were infested with a Frankliniella population of mixed ages. The samples were assessed for mortality 7 days after infestation.

[5] = tested on: Plutella xylostella (Diamond Back Moth); assay: Example B10: Plutella xylostella, treated artificial diet, growth inhibition; conditions: 120 h, application rate of 200 ppm, L2 larvae, 5 days after infestation
Outline: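 Artificial diet treated with aqueous dilutions prepared from 10,000 ppm DMSO stocks, dried, then infested with 10-15 L2 larvae per well. Growth inhibition scored against untreated samples 5 days after infestation.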

[6] = tested on: Plutella xylostella (Diamond Back Moth); assay: Example B12: Plutella xylostella, treated artificial diet, mortality; conditions: 120 h, application rate of 200 ppm, L2 larvae, 5 days after infestation
Procedure: 24-well microtiter plates with artificial diet were treated with aqueous test solutions prepared from 10,000 ppm DMSO stock solutions by pipetting. After drying, the plates were infested with L2 larvae (10 to 15 per well). The samples were assessed for mortality 5 days after infestation.

[7] = tested on: Plutella xylostella (Diamond Back Moth); assay: Example B13: Plutella xylostella, treated artificial diet, mortality and growth inhibition; conditions: 120 h, application rate of 200 ppm, L2 larvae, 5 days after infestation, read-out: effect in at least one of the two categories (mortality or growth inhibition)
Procedure: 24-well microtiter plates with artificial diet were treated with aqueous test solutions prepared from 10,000 ppm DMSO stock solutions by pipetting. After drying, the plates were infested with L2 larvae (10 to 15 per well). The samples were assessed for mortality and growth inhibition in comparison to untreated samples 5 days after infestation.

[8] = tested on: Spodoptera littoralis (Egyptian Cotton Leaf Worm); assay: Example B14: Spodoptera littoralis, sprayed cotton leaf discs, anti-feeding effect; conditions: foliar, 72 h, application rate of 200 ppm, L1 larvae, 3 days after infestation
Outline: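 Cotton leaf discs on agar sprayed with aqueous test solutions made from 10,000 ppm DMSO stocks, dried, then infested with five L1 larvae. Anti-feeding effect scored 3 days after infestation against untreated discs; control counted when anti-feedant effect exceeds untreated.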

[9] = tested on: Spodoptera littoralis (Egyptian Cotton Leaf Worm); assay: Example B17: Spodoptera littoralis, sprayed cotton leaf discs, mortality, anti-feeding effect and growth inhibition; conditions: foliar, 72 h, application rate of 200 ppm, L1 larvae, 3 days after infestation, read-out: control (at least one of mortality, anti-feedant effect, growth inhibition)
Outline: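 Cotton leaf discs on agar sprayed with aqueous dilutions of 10,000 ppm DMSO stocks, dried, then infested with five L1 larvae. Mortality, anti-feeding and growth inhibition scored against untreated discs 3 days after infestation. Control recorded when any one category exceeds the untreated sample.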

[10] = tested on: Spodoptera littoralis (Egyptian Cotton Leaf Worm); assay: Example B19: Spodoptera littoralis, compound in agar absorbed by lettuce roots, anti-feedant effect; conditions: 144 h, test rate of 12.5 ppm, uptake by lettuce roots, Spodoptera eggs, 6 days after infestation, read-out: anti-feeding
Outline: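 Compound from DMSO stock mixed into agar; lettuce seedlings took it up via roots over 7 days, then cut leaves were infested with Spodoptera eggs. Anti-feedant effect scored 6 days after infestation relative to untreated samples.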

[11] = tested on: Spodoptera littoralis (Egyptian Cotton Leaf Worm); assay: Example B20: Spodoptera littoralis, compound in agar absorbed by lettuce roots, mortality; conditions: 144 h, test rate of 12.5 ppm, uptake by lettuce roots, Spodoptera eggs, 6 days after infestation
Outline: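 Compound from a 10,000 ppm DMSO stock mixed into agar; lettuce grown on it for 7 days to take up compound via roots, then leaves cut into lid plate. Spodoptera eggs applied on humid blotting paper; mortality scored 6 days after infestation.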

[12] = tested on: Tetranychus urticae (Two-Spotted Spider Mite); assay: Example B21: Tetranychus urticae, sprayed bean leaf discs, mortality; conditions: foliar, 192 h, application rate of 200 ppm, mixed population (mobile stages), 8 days after infestation
Procedure: Bean leaf discs on agar in 24-well microtiter plates were sprayed with aqueous test solutions prepared from 10,000 ppm DMSO stock solutions. After drying the leaf discs were infested with a mite population of mixed ages. The samples were assessed for mortality on mixed population (mobile stages) 8 days after infestation.

[13] = tested on: Aedes aegypti (Yellow Fever Mosquito); assay: Example B23: Aedes aegypti, dry deposits in 12 well tissue culture plates, control; conditions: application rate of 200 ppm in ethanol, adult females, after 48 h and/or 24 h
Procedure: Test solutions, at an application rate of 200 ppm in ethanol, were applied to 12 well tissue culture plates. Once the deposits were dry, five, two to five day old adult female Aedes aegypti were added to each well, and sustained with a 10% sucrose solution in a cotton wool plug. Assessment of knockdown was made one hour after introduction, and mortality was assessed at 24 and 48 hours after introduction.

CCS(=O)(=O)c1cc(C(C#N)CCBr)cnc1-c1cn2cnc(C(F)(F)F)cc2n1 (stereo not shown) [Compound P13, 4-bromo-2-[5-ethylsulfonyl-6-[7-(trifluoromethyl)imidazo[1,2-c]pyrimidin-2-yl]-3-pyridyl]butanenitrile]
≥ 80%: mortality at 200 ppm [1] | percent effect (mortality or growth inhibition) at 200 ppm [2] | mortality at 200 ppm [3] | mortality at 200 ppm [4] | inhibition at 200 ppm [5] | mortality at 200 ppm [6] | percent effect (mortality or growth inhibition) at 200 ppm [7] | pest or weed control at 200 ppm [8] | percent control (mortality, anti-feedant effect or growth inhibition) at 200 ppm [9] | pest or weed control at 12.5 ppm [10] | mortality at 12.5 ppm [11] | mortality at 200 ppm [12] | pest or weed control at 200 ppm [13]
